Test results taken from a melting point compilation (Tetko et al.; mined from patent text by program, amines drawn as free bases though some values may be those of a salt).

`COc1cc(C(=O)Cc2ccccc2C)cc([N+](=O)[O-])c1O` showed a melting point of 150 to 151 °C. Compound `CCCCCCCCCCCCNC(=O)c1cc(Br)c(OCCn2cnnn2)c(-c2cccc(C(F)(F)F)c2)c1` has a melting point of 91.5 to 92.6 °C. Compound `COC(=O)C1=C(C)NC(C)=C(S(=O)(=O)c2ccc(O)cc2)C1c1ccccc1Cl` (stereo not given) has a melting point of 223 to 225 °C. Work on `O=C(Cn1c(-c2ccc(Cl)cc2)nc2cccnc21)N1CCSC1` yielded a melting point of 215 to 218 °C. `Nc1cccc(CCO)c1` showed a melting point of 61 to 64 °C. `O=C(c1ccoc1)N1CCC(O)(C#Cc2cccc(Cl)c2)CC1` showed a melting point of 93 to 94 °C. `COC(=O)CCCc1cc2cc(Cl)ccc2n1S(=O)(=O)c1ccc2nc(C)oc2c1` showed a melting point of 100 to 110 °C. `COc1ccc(CC(=O)NC(NC(=NC#N)Nc2cccnc2OC)C(C)(Cl)Cl)cc1OC` (stereo not given) showed a melting point of 188 to 190 °C. Compound `NNC1=Nc2sc(Cl)cc2C(c2ccccc2)=NC1` has a melting point of 204 to 207 °C. With `COc1cc(-c2cn3cccnc3n2)ccc1O` the melting point was 230 to 233 °C. For `CCOC(=O)C(=CNC1CC1)C(=O)c1c(N)c(F)c(F)c(OC(F)F)c1F`, the melting point was 103 to 104 °C. For `CNc1snc(C)c1[N+](=O)[O-]`, the melting point was 153 °C. `CCCCOc1ccc(Nc2cc(Nc3ccc4c(c3)OCCO4)c(F)cn2)cc1` gave a melting point of 133 to 135 °C. `CN(c1ccncc1[N+](=O)[O-])n1cccc1C=O` gave a melting point of 101 to 107 °C. With `CSc1ncnn1C[C@]1(c2ccc(F)cc2F)O[C@@H]1c1ccccc1Cl` (relative stereo) the melting point was 116 to 117 °C. For `COc1ccc(-c2ccc3c(c2)CCC3=O)c2c1OCCO2`, the melting point was 168 °C. For `Cc1nnc(-c2ccc3ncn(C4CCN(Cc5ccccc5)CC4)c3c2)o1`, the melting point was 173 to 174 °C. For `Fc1ccc(CCN2CCC(N3CCc4ccc(Br)cc43)CC2)cc1`, the melting point was 99 to 101 °C. `CCOC(=O)N1CCN(c2ccc(C3=NNC(=O)CC3C)cc2Cl)CC1` (stereo not given) gave a melting point of 154 to 156 °C. In the case of `CC(C)=CCC/C(C)=C/CSc1nc2ccccc2[nH]1`, the melting point is reported as 98 to 100 °C. Work on `COc1ccc(-c2nc3cnccc3[nH]2)c(OCCCCl)c1` yielded a melting point of 174 to 176 °C. For `O=C1ONCC12CCOc1ccc(F)cc12` (stereo not given), the melting point was 153 to 155 °C. `COc1cc(N)c(Cl)cc1C(=O)NC1CCN(CC2CCN(C(C)C(C)=O)CC2)CC1` (stereo not given) showed a melting point of 268 to 270 °C. In the case of `O=C(O)C1(C(=O)O)C=CC=CN1`, the melting point is reported as 186 °C. `CCCN(CCC)Cc1csc(-c2ncn3c2CN(C)C(=O)c2ccccc2-3)n1` gave a melting point of 111 to 112 °C. `CCOC(=O)c1nc(NC)sc1-c1cn2ccccc2n1` showed a melting point of 197 to 200 °C. In the case of `CCCCCCNCCC(=O)O`, the melting point is reported as 95 to 97 °C. Compound `NS(=O)(=O)c1ccc(NN=C2C(=O)Nc3ccc(C(=O)NCCN4CCOCC4)cc32)cc1` has a melting point of 210 to 212 °C. `CCOC(=O)C1=C(C)Nc2nc(N3CCOCC3)nc(N3CCOCC3)c2C1c1ccccn1` (stereo not given) showed a melting point of 226 °C. For `CCOC(=O)C1=C(C)NC(C)=C(C(=O)OC2CCCCC2)C1c1cccc([N+](=O)[O-])c1` (stereo not given), the melting point was 135 °C. In the case of `CN(C)CC(=O)N1CCN2C(=O)N(c3cc(Cl)cc(Cl)c3)C(=O)C2(Cc2ccc(Br)cc2)C1` (stereo not given), the melting point is reported as 73.5 °C. In the case of `CC(=O)Nc1ncc(SCC(=O)OC(C)(C)C)s1`, the melting point is reported as 162 to 163 °C. In the case of `CC(=O)Oc1ccc(CCc2ccc(NC(=O)C3=C(O)c4ccccc4SC3)cc2)cc1OC(C)=O`, the melting point is reported as 214 to 215 °C. For `CCc1ccc(NCc2cc(OC)c(OC)c(OC)c2)cc1`, the melting point was 64 to 66 °C. In the case of `O=Cc1ccc(OCC(F)(F)F)c([N+](=O)[O-])c1`, the melting point is reported as 126 to 127 °C. Work on `CCOC(=O)c1c2ccc(CC(=O)NOCC(=O)N3CCCCC3)ccc-2c(C(=O)OCC)c1N` yielded a melting point of 153 to 155 °C. `C=CCc1cccc2c(=O)cc(-c3ccccc3F)oc12` gave a melting point of 78 to 81 °C. `CCCc1nc(C=O)c(C)[nH]1` showed a melting point of 126 to 129 °C. For `CN1C(=O)C2C3C=CC(C3)C2(c2ccc3c(c2)CCCC3)C1=O` (stereo not given), the melting point was 78 to 86 °C. In the case of `Cc1nc2[nH]c(=O)[nH]c2cc1-c1ccc([N+](=O)[O-])cc1`, the melting point is reported as over 300 °C. For `Cc1cc(-c2nc(C)c(C)o2)cc(C)c1O`, the melting point was 203 to 205 °C. For `O=C(O)c1ccc(COCc2csc3nc(C(=O)NCc4ccc(F)c(Cl)c4)[nH]c(=O)c23)cc1`, the melting point was 228 to 230 °C. `NC1CCN(c2ncc3ncnc(Nc4ccc(F)c(Cl)c4)c3n2)C1` (stereo not given) showed a melting point of 174 to 176 °C. With `CC1(C)CC(NC(=O)c2ccc(Cl)c([N+](=O)[O-])c2)CC(C)(C)N1` the melting point was 166 to 168 °C. Work on `CCCCCCOc1ccc2c(CC#N)c(OCCCCCC)ccc2c1CC#N` yielded a melting point of 135 to 136 °C. With `COC(=O)CC(C(=O)c1cccc(OCc2ccccc2)c1)c1ccccc1` (racemic) the melting point was 88 to 89 °C. In the case of `Cc1ccc(C(=O)c2noc(CS(=O)c3ccccc3)n2)cc1` (stereo not given), the melting point is reported as 97 to 99 °C. With `CN(C)CC1CNc2ccc(Cl)cc2C1` (stereo not given) the melting point was 94 to 96 °C. For `CC(=O)n1nc(OCC(=O)C(C)(C)C)c(-c2ccccc2)c1-c1ccc(S(C)(=O)=O)cc1`, the melting point was 189 to 191 °C. Work on `O=C(O)[C@@H]1CCCN1C(=O)c1cc2cc3c(cc2c2cc(O)ccc12)OCO3` yielded a melting point of 230 to 231 °C.
